According to patent publication US5132320A, “Squalene synthetase inhibitors” (Merck & Co., Inc., priority 1990, dated 1992):
pIC50: −log10 of the molar value.

Experiments:
Squalene Synthetase = target: T1, Squalene Synthetase (Rattus norvegicus, UniProt Q02769); test: squalene synthetase assay (rat liver microsomes, [4-14C]farnesyl-pyrophosphate); assay type: biochemical; conditions: 30° C., 20 minutes, pH 7.5
T1 construct: from tissue; host or cells: liver microsomes of male Charles River CD rats fed 0.1% lovastatin for 4 days
T1 sequence (Q02769 1-416): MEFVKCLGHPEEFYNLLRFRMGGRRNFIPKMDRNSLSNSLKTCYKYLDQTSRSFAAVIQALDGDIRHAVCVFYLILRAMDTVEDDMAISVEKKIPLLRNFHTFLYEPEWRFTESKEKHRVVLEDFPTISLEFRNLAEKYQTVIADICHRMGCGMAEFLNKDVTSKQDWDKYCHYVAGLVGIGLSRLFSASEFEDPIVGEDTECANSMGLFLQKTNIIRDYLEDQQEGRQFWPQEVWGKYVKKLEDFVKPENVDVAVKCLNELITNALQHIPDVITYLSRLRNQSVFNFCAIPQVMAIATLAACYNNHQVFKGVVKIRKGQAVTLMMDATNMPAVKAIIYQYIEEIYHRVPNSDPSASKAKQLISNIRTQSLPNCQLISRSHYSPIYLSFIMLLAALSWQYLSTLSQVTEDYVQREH
Description: The intrinsic squalene synthetase inhibitory activity of representative compounds of this invention was measured by the standard in vitro protocol described below:
PREPARATION OF MICROSOMES
Male, Charles River CD rats (120 to 150 g) were fed a diet containing 0.1% lovastatin for 4 days. The livers from these rats were homogenized in 5 volumes (ml/g) of ice cold 50 mM HEPES (4-(2-hydroxyethyl)-1-piperazine-ethanesulfonic acid), 5 mM EDTA (ethylenediaminetetraacetic acid) pH 7.5 with a Potter-Elvehjem type tissue grinder. The homogenate was centrifuged twice at 20,000×g for 15 minutes at 4° C., discarding the pellet each time. The supernatant was then centrifuged at 100,000×g for 1 hour at 4° C. The resulting microsomal pellet was resuspended in a volume of the above homogenizing buffer equal to one-fifth the volume of the original homogenate. This microsomal preparation has a protein concentration of about 7 mg/ml. The microsomal suspensions were stored in aliquots at -70° C. Squalene synthetase activity in these aliquots is stable for at least several months.
Partial Purification of Prenyl Transferase
Prenyl transferase was purified to use in the enzymatic synthesis of radiolabelled farnesyl pyrophosphate. […]

Fus. oxysporum MF4014 = test: antifungal microtiter dilution assay, filamentous fungi (MIC); assay type: cell-based; conditions: Fusarium oxysporum, 42 hours, 28° C., read-out: Minimum Inhibitory Concentration
Description: The compounds are particularly active towards filamentous fungi and yeasts including Candida albicans and Crypt. neoformans. The sensitivity of filamentous fungi and yeast was determined using inhibitor dilution assays in microtiter format. The compounds were dissolved in DMSO at 2 mg/ml and serially diluted in 0.1M phosphate buffer, pH 7.0 in the microtiter dish from 100 to 0.006 μg/ml. A standardized spore suspension for testing the filamentous fungi was prepared by inoculating Antibiotic Medium #3 containing 1.5% agar with spores such that 1.5×10^3 colony forming units were added per well. The microtiter wells were filled with 50 μl of buffer containing compound and 50 μl of inoculated medium. The sensitivity of yeasts was determined by inoculating yeast nitrogen base containing 1% dextrose (YNB/G) with aliquots of an overnight yeast culture grown in Yeast Morphology (YM) media at 35° C. and diluting in YNB/G to yield a final concentration of 1.5-7.5×10^3 colony forming units/well. One hundred fifty μl of inoculated media was added per well. To test the sensitivity of yeast, compound was solubilized in 10 percent aqueous DMSO at 2.56 mg/ml. The compound was diluted serially in YNB/G from 128 to 0.06 μg/ml. The wells were filled with 150 μl of drug containing media. […]

| pIC50 (Squalene Synthetase) | MIC (Fus. oxysporum MF4014) [µg/mL] | Compound |
| --- | --- | --- |
| 8.30 | > 100 | CC=CCCCCC=CCCCCC(=O)OC1C(O)C2(CCC(C)C(O)C(C)CC=Cc3ccccc3)OC(C(=O)O)C(O)(C(=O)O)C1(C(=O)O)O2 (stereo not drawn) [Compound A] |
| 5.30 | – | CC=CCCCCC=CCCCCC(=O)OC1C(O)C2(CCC(C)C(O)C(C)CC=Cc3ccccc3)OC(C(=O)OC)C(O)(C(=O)OC)C1(C(=O)OC)O2 (stereo not drawn) [Compound B] |
